Reference: patent publication US11311522B1 (Cavion, Inc., priority 2018, dated 2022)

Assay: PN001/Part I: safety and tolerability
Format: in vivo, human
Text: Safety was monitored throughout by adverse events, vital signs, and repeated clinical and laboratory evaluations. […] All adverse events were mild or moderate and severity and transient.

CC(C)c1ccc(CC(=O)N[C@H](C)c2ccc(OCC(F)(F)F)cn2)cc1 [CX-8998]
Abnormal physical sensation (12 mg): 0 n (%)
At least 1 adverse event (12 mg): 9 (75.0) n (%)
Dizziness (12 mg): 1 (8.3) n (%)
Drowsiness (12 mg): 1 (8.3) n (%)
Elevated mood (12 mg): 1 (8.3) n (%)
Euphoric mood (12 mg): 2 (16.7) n (%)
Eye Disorders (12 mg): 1 (8.3) n (%)
Fatigue (12 mg): 0 n (%)
Feeling abnormal (12 mg): 2 (16.7) n (%)
Floating feeling (12 mg): 0 n (%)
Gastro-intestinal Disorders (12 mg): 3 (25.0) n (%)
Hangover effect (12 mg): 0 n (%)
Headache (12 mg): 2 (16.7) n (%)
Indifference (12 mg): 0 n (%)
Injury, Poisoning and Procedural Complications (12 mg): 0 n (%)
Insomnia (12 mg): 0 n (%)
Intoxication (12 mg): 0 n (%)
Irritability (12 mg): 0 n (%)
Lethargy (12 mg): 1 (8.3) n (%)
Nervous System Disorders (12 mg): 5 (41.7) n (%)
Paraesthesia (12 mg): 0 n (%)
Paraesthesia oral (12 mg): 1 (8.3) n (%)
Paraesthesia tongue (12 mg): 2 (16.7) n (%)
Psychiatric Disorders (12 mg): 4 (33.3) n (%)
Racing thoughts (12 mg): 1 (8.3) n (%)
Relaxed (12 mg): 4 (33.3) n (%)
Sensory disturbance (12 mg): 0 n (%)
Vision blurred (12 mg): 0 n (%)
Visual disturbance (12 mg): 1 (8.3) n (%)
Vivid dreams (12 mg): 0 n (%)
Abnormal physical sensation (12 mg evening): 0 n (%)
At least 1 adverse event (12 mg evening): 4 (66.7) n (%)
Dizziness (12 mg evening): 0 n (%)
Drowsiness (12 mg evening): 1 (16.7) n (%)
Elevated mood (12 mg evening): 0 n (%)
Euphoric mood (12 mg evening): 0 n (%)
Eye Disorders (12 mg evening): 3 (50.0) n (%)
Fatigue (12 mg evening): 0 n (%)
Feeling abnormal (12 mg evening): 0 n (%)
Floating feeling (12 mg evening): 0 n (%)
Gastro-intestinal Disorders (12 mg evening): 1 (16.7) n (%)
Hangover effect (12 mg evening): 0 n (%)
Headache (12 mg evening): 1 (16.7) n (%)
Indifference (12 mg evening): 0 n (%)
Injury, Poisoning and Procedural Complications (12 mg evening): 0 n (%)
Insomnia (12 mg evening): 0 n (%)
Intoxication (12 mg evening): 0 n (%)
Irritability (12 mg evening): 0 n (%)
Lethargy (12 mg evening): 1 (16.7) n (%)
Nervous System Disorders (12 mg evening): 3 (50.0) n (%)
Paraesthesia (12 mg evening): 0 n (%)
Paraesthesia oral (12 mg evening): 0 n (%)
Paraesthesia tongue (12 mg evening): 1 (16.7) n (%)
Psychiatric Disorders (12 mg evening): 2 n (%)
Racing thoughts (12 mg evening): 0 n (%)
Relaxed (12 mg evening): 0 n (%)
Sensory disturbance (12 mg evening): 0 n (%)
Vision blurred (12 mg evening): 0 n (%)
Visual disturbance (12 mg evening): 3 (50.0) n (%)
Vivid dreams (12 mg evening): 2 n (%)
Abnormal physical sensation (16 mg evening): 0 n (%)
At least 1 adverse event (16 mg evening): 9 (75.0) n (%)
Dizziness (16 mg evening): 1 (8.3) n (%)
Drowsiness (16 mg evening): 1 (8.3) n (%)
Elevated mood (16 mg evening): 3 (25.0) n (%)
Euphoric mood (16 mg evening): 3 (25.0) n (%)
Eye Disorders (16 mg evening): 1 (8.3) n (%)
Fatigue (16 mg evening): 2 (16.7) n (%)
Feeling abnormal (16 mg evening): 0 n (%)
Floating feeling (16 mg evening): 1 (8.3) n (%)
Gastro-intestinal Disorders (16 mg evening): 1 (8.3) n (%)
Hangover effect (16 mg evening): 2 (16.7) n (%)
Headache (16 mg evening): 4 (33.3) n (%)
Indifference (16 mg evening): 2 (16.7) n (%)
Injury, Poisoning and Procedural Complications (16 mg evening): 0 n (%)
Insomnia (16 mg evening): 0 n (%)
Intoxication (16 mg evening): 0 n (%)
Irritability (16 mg evening): 1 (8.3) n (%)
Lethargy (16 mg evening): 1 (8.3) n (%)
Nervous System Disorders (16 mg evening): 8 (66.7) n (%)
Paraesthesia (16 mg evening): 1 (8.3) n (%)
Paraesthesia oral (16 mg evening): 0 n (%)
Paraesthesia tongue (16 mg evening): 0 n (%)
Psychiatric Disorders (16 mg evening): 8 (66.7) n (%)
Racing thoughts (16 mg evening): 2 (16.7) n (%)
Relaxed (16 mg evening): 2 (16.7) n (%)
Sensory disturbance (16 mg evening): 1 (8.3) n (%)
Vision blurred (16 mg evening): 1 (8.3) n (%)
Visual disturbance (16 mg evening): 0 n (%)
Vivid dreams (16 mg evening): 8 (66.7) n (%)
Abnormal physical sensation (20 mg evening): 1 (16.7) n (%)
At least 1 adverse event (20 mg evening): 6 (100) n (%)
Dizziness (20 mg evening): 0 n (%)
Drowsiness (20 mg evening): 2 (33.3) n (%)
Elevated mood (20 mg evening): 1 (16.7) n (%)
Euphoric mood (20 mg evening): 3 (50.0) n (%)
Eye Disorders (20 mg evening): 1 (16.7) n (%)
Fatigue (20 mg evening): 0 n (%)
Feeling abnormal (20 mg evening): 0 n (%)
Floating feeling (20 mg evening): 0 n (%)
Gastro-intestinal Disorders (20 mg evening): 0 n (%)
Hangover effect (20 mg evening): 0 n (%)
Headache (20 mg evening): 5 (83.3) n (%)
Indifference (20 mg evening): 0 n (%)
Injury, Poisoning and Procedural Complications (20 mg evening): 2 (33.3) n (%)
Insomnia (20 mg evening): 1 (16.7) n (%)
Intoxication (20 mg evening): 2 (33.3) n (%)
Irritability (20 mg evening): 1 (16.7) n (%)
Lethargy (20 mg evening): 2 (33.3) n (%)
Nervous System Disorders (20 mg evening): 6 (100) n (%)
Paraesthesia (20 mg evening): 1 (16.7) n (%)
Paraesthesia oral (20 mg evening): 0 n (%)
Paraesthesia tongue (20 mg evening): 0 n (%)
Psychiatric Disorders (20 mg evening): 5 (83.3) n (%)
Racing thoughts (20 mg evening): 0 n (%)
Relaxed (20 mg evening): 4 (66.7) n (%)
Sensory disturbance (20 mg evening): 2 (33.3) n (%)
Vision blurred (20 mg evening): 1 (16.7) n (%)
Visual disturbance (20 mg evening): 0 n (%)
Vivid dreams (20 mg evening): 2 (33.3) n (%)
Abnormal physical sensation (24 mg evening): 0 n (%)
At least 1 adverse event (24 mg evening): 6 (100) n (%)
Dizziness (24 mg evening): 1 (16.7) n (%)
Drowsiness (24 mg evening): 3 (50.0) n (%)
Elevated mood (24 mg evening): 0 n (%)
Euphoric mood (24 mg evening): 1 (16.7) n (%)
Eye Disorders (24 mg evening): 2 (33.3) n (%)
Fatigue (24 mg evening): 0 n (%)
Feeling abnormal (24 mg evening): 1 (16.7) n (%)
Floating feeling (24 mg evening): 1 (16.7) n (%)
Gastro-intestinal Disorders (24 mg evening): 0 n (%)
Hangover effect (24 mg evening): 0 n (%)
Headache (24 mg evening): 6 (100) n (%)
Indifference (24 mg evening): 0 n (%)
Injury, Poisoning and Procedural Complications (24 mg evening): 0 n (%)
Insomnia (24 mg evening): 1 (16.7) n (%)
Intoxication (24 mg evening): 0 n (%)
Irritability (24 mg evening): 0 n (%)
Lethargy (24 mg evening): 1 (16.7) n (%)
Nervous System Disorders (24 mg evening): 6 (100) n (%)
Paraesthesia (24 mg evening): 1 (16.7) n (%)
Paraesthesia oral (24 mg evening): 0 n (%)
Paraesthesia tongue (24 mg evening): 0 n (%)
Psychiatric Disorders (24 mg evening): 4 (66.7) n (%)
Racing thoughts (24 mg evening): 1 (16.7) n (%)
Relaxed (24 mg evening): 0 n (%)
Sensory disturbance (24 mg evening): 0 n (%)
Vision blurred (24 mg evening): 1 (16.7) n (%)
Visual disturbance (24 mg evening): 0 n (%)
Vivid dreams (24 mg evening): 2 (33.3) n (%)
Abnormal physical sensation (any dose): 2 (9.1) n (%)
At least 1 adverse event (any dose): 19 (86.4) n (%)
Dizziness (any dose): 2 (9.1) n (%)
Drowsiness (any dose): 7 (31.8) n (%)
Elevated mood (any dose): 6 (27.3) n (%)
Euphoric mood (any dose): 8 (36.4) n (%)
Eye Disorders (any dose): 9 (40.9) n (%)
Fatigue (any dose): 2 (9.1) n (%)
Feeling abnormal (any dose): 4 (18.2) n (%)
Floating feeling (any dose): 2 (9.1) n (%)
Gastro-intestinal Disorders (any dose): 4 (18.2) n (%)
Hangover effect (any dose): 2 (9.1) n (%)
Headache (any dose): 10 (45.5) n (%)
Indifference (any dose): 2 (9.1) n (%)
Injury, Poisoning and Procedural Complications (any dose): 2 (9.1) n (%)
Insomnia (any dose): 2 (9.1) n (%)
Intoxication (any dose): 2 (9.1) n (%)
Irritability (any dose): 2 (9.1) n (%)
Lethargy (any dose): 3 (13.6) n (%)
Nervous System Disorders (any dose): 16 (72.7) n (%)
Paraesthesia (any dose): 2 (9.1) n (%)
Paraesthesia oral (any dose): 2 (9.1) n (%)
Paraesthesia tongue (any dose): 2 (9.1) n (%)
Psychiatric Disorders (any dose): 15 (68.2) n (%)
Racing thoughts (any dose): 4 (18.2) n (%)
Relaxed (any dose): 9 (40.9) n (%)
Sensory disturbance (any dose): 3 (13.6) n (%)
Vision blurred (any dose): 4 (18.2) n (%)
Visual disturbance (any dose): 4 (18.2) n (%)
Vivid dreams (any dose): 11 (50.0) n (%)
Tolerability (single doses): Single doses up to 16 mg were generally well tolerated
